Measurements as given in patent US7211576B2, “Diaminothiazoles” (Hoffmann-La Roche Inc., priority 2004, dated 2007).

What was measured:
human cyclin E-CDK2 = human cyclin E-CDK2 (Homo sapiens, UniProt P24941); experiment: FlashPlate kinase assay, cyclin E-CDK2; assay type: biochemical; conditions: Rb protein substrate, 1 μM ATP, 33P-ATP, 30 minutes room temperature
human cyclin D1-CDK4 = human cyclin D1-CDK4 (Homo sapiens, UniProt P11802); experiment: FlashPlate kinase assay, cyclin D1-CDK4; assay type: biochemical; conditions: Rb protein substrate, 1 μM ATP, 33P-ATP, 30 minutes room temperature; read-out: CDK4 IC50
Chain of human cyclin D1-CDK4 (P11802 whole entry): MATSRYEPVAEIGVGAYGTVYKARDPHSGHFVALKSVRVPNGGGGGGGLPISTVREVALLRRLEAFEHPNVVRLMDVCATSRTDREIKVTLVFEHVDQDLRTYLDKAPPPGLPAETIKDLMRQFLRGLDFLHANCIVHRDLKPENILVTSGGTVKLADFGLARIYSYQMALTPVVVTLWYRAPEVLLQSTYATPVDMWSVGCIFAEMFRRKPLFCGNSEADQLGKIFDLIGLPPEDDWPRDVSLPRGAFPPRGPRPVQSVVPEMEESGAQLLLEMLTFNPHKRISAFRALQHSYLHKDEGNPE
Chain of human cyclin D1-CDK4 (P24385 whole entry partner): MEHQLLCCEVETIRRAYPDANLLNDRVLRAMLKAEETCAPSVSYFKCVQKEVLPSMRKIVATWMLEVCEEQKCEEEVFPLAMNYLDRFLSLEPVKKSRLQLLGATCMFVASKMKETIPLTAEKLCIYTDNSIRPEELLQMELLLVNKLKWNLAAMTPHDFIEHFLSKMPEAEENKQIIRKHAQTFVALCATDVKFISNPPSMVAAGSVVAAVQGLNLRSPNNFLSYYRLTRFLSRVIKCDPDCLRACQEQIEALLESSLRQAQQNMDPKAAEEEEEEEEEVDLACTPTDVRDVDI

[1] = tested on: HCT116, a colorectal carcinoma cell line; experiment: Tetrazolium dye (MTT) proliferation assay; assay type: cell-based; conditions: Homo sapiens, HCT-116; HCT116 cells, inhibition of cell proliferation
How it was run: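 Cells in McCoy's 5A with 10% FCS, seeded for log growth, dosed next day in duplicate (0.3% DMSO final) and incubated to time points set by growth curves at 37° C. MTT at 1 mg/ml for 2.5–3 h, formazan in ethanol, A570 minus 650 nm reference. IC50 by linear regression of log concentration versus % inhibition.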

human cyclin B-CDK1 = human cyclin B-CDK1 (Homo sapiens, UniProt P06493); experiment: FlashPlate kinase assay, cyclin B-CDK1; assay type: biochemical; conditions: Rb protein substrate, 1 μM ATP, 33P-ATP, 30 minutes room temperature
Chain of human cyclin B-CDK1 (P06493 whole entry): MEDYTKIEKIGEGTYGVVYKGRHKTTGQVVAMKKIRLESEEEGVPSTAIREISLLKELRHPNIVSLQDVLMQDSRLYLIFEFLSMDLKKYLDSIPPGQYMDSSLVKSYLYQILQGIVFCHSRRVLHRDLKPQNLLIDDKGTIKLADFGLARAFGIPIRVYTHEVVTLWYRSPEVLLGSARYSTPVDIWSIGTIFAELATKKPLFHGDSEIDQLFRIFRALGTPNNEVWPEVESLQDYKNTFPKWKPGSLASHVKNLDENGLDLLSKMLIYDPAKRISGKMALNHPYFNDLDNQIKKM
Chain of human cyclin B-CDK1 (P14635 whole entry partner): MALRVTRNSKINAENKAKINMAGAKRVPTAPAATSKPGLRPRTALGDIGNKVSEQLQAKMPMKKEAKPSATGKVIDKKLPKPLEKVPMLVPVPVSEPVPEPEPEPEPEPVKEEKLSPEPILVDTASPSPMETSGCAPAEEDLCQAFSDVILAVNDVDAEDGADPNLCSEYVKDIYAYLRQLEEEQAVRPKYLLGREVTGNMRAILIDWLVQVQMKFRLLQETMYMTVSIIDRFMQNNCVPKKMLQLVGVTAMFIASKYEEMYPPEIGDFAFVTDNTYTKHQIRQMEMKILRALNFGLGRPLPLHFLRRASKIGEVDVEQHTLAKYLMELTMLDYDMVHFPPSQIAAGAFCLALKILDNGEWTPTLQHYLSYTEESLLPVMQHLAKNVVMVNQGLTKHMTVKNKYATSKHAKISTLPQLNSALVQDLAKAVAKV

IC50 (human cyclin E-CDK2) | IC50 (human cyclin D1-CDK4) | IC50 [1] | IC50 (human cyclin B-CDK1) | SMILES
1.82 µM | 0.009 µM | 1.64 µM | 0.71 µM | Nc1nc(Nc2ccc(N3CCC(N4CCCC(O)C4)CC3)cc2)sc1C(=O)c1cccc([N+](=O)[O-])c1 (centres unmarked) [Example 91, {4-Amino-2-[4-(3-hydroxy-[1,4′]bipiperidinyl-1′-yl)-phenylamino]-thiazol-5-yl}-(3-nitro-phenyl)-methanone]
7.27 µM | 0.045 µM | 1.74 µM | 0.94 µM | COc1ccc(C(=O)c2sc(Nc3ccc(N4CCC(N(C)C)CC4)cc3)nc2N)cc1[N+](=O)[O-] [Example 113, {4-Amino-2-[4-(4-dimethylamino-piperidin-1-yl)-phenylamino]-thiazol-5-yl}-(4-methoxy-3-nitro-phenyl)-methanone]
